Measured values as given in patent US4977267A, “Intermediates for pyridyloxy compounds having utility as anti-peptic ulcer agents” (Fujirebio Kabushiki Kaisha, priority 1987, dated 1990).

Columns and labels:
[1] = test system: gastric mucosa (lesion by necrotizing agent 0.4N HCl+50% ethanol); experiment: Test on the Action of Gastric Mucosal Protection; assay type: in vivo, Male Donryu rats; conditions: 10 mg/kg, p.o., 30 minutes before necrotizing agent (0.4N HCl+50% ethanol, 5 ml/kg); stomach isolated after one hour; rats fasted 24 hours
Method: Test on the Action of Gastric Mucosal Protection
Male Donryu rats (150 to 250 g) which had been caused to fast for 24 hours were used. In the test, a necrotizing agent (0.4N HCl+50% ethanol) was orally administered in a dose of 5 ml/kg 30 minutes after administering each of the test compounds (10 mg/kg, p.o.). One hour after administration of the necrotizing agent, the stomach was isolated and fixed by formalin. The area of a lesion was measured, and by comparison with a control group, the percent inhibition was determined.

histamine H2 receptor = molecular target: T1, histamine H2 receptor (Cavia porcellus, UniProt P47747); experiment: Test on histamine H2 receptor antagonizing activity (isolated right atrium); parameters: species or system Hartley-strain guinea pigs; conditions: guinea pig right atrium, heart rate; histamine dose-response; test compound 1×10^-6, 1×10^-7 M, 10 minutes; Van Rossum method; read-out: pA2 (converted)
T1 construct: the right atrium was dissected from the hearts; from tissue; host or cells: isolated right atrium of male Hartley-strain guinea pigs
Method: Test on histamine H2 receptor antagonizing activity
Hartley-strain guinea pigs (male 300 to 350 g) were stunned with a blow to the head. The heart was removed, and the right atrium was dissected from the hearts in the Krebs' solution bubbled with a […] was suspended in an Organ bath filled with the Krebs' solution kept at 32° C. The gaseous mixture was passed through the Organ bath, and a diastolic tension was adjusted to 1 g. The contraction of the atrium was recorded by a force displacement transducer, and the heart rate was measured by interlocking a heart rate meter to the transducer.
Histamine (used in the form of dihydrochloride; the same hereinafter) was added to the Organ bath cumulatively in a concentration of 1×10^-8 M to 3×10^-5 M. Thus, the dose-response curve of histamine was obtained. The Organ bath was washed several times, and each of the test compounds (1×10^-6, 1×10^-7 M) was added to the Organ bath, and a dose-response curve of histamine in the presence of the test compound was obtained 10 minutes later.
The pA2 value of each of the test compound was determined from the first histamine dose-response curve and the histamine dose-response curve obtained in the presence of the test compounds by the method of J. M. Van Rossum (Arch. Int. Pharmacodyn. Ther., 143-299, 1963).

T1 sequence (P47747 whole entry): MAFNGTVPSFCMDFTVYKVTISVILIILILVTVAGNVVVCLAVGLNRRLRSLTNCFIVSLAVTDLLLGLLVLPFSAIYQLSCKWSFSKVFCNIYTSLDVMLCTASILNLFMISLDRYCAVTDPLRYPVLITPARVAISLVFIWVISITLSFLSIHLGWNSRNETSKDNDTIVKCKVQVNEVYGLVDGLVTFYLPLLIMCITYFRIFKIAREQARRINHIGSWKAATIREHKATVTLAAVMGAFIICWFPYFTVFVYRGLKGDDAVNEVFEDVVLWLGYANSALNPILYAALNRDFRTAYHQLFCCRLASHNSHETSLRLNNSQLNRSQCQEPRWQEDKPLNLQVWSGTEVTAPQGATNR

Structure (SMILES) | Inhibition (%) of lesion area [1] [%] | Kb (histamine H2 receptor) [nM]
O=C(CSCc1ccco1)NC/C=C\COc1cc(CN2CCCCC2)ccn1 [Example 1, N-{4-[4-(piperidinomethyl)pyridyl-2oxy]-cis-2-butenyl)-2-(furfurylthio)acetamide] | 66 | –
O=C(C[S+]([O-])Cc1ccco1)NC/C=C\COc1cc(CN2CCCCC2)ccn1 (stereo not drawn) [Example 2, N-{4-[4-(piperidinomethyl)pyridyl-2-oxy]-cis-2-butenyl}-2-(furfurylsulfinyl)acetamide] | 32 | –
O=C(CS(=O)(=O)Cc1ccoc1)NC/C=C\COc1cc(CN2CCCCC2)ccn1 [Example 3, N-{4-[4-(piperidinomethyl)pyridyl-2-oxy]-cis-2-butenyl}-2-(3-furylmethylsulfonyl)acetamide] | 62 | –
O=C(C[S+]([O-])Cc1ccco1)NC/C=C\COc1cc(CN2CCCC2)ccn1 (stereo not drawn) [Example 10, N-{4-[4-(pyrrolidinomethyl)pyridyl-2-oxy]-cis-2-butenyl}-2-(furfurylsulfinyl)acetamide] | – | 126
O=C(CS(=O)(=O)Cc1ccoc1)NC/C=C\COc1cc(CN2CCCC2)ccn1 [Example 11, N-{4-[4-(pyrrolidinomethyl)pyridyl-2-oxy]-cis-2-butenyl}-2-(3-furylmethylsulfonyl)acetamide] | – | 100
O=C(C[S+]([O-])Cc1ccco1)NC/C=C\COc1cc(CN2CCOCC2)ccn1 (stereo not drawn) [Example 12, N-{4-[4-(morpholinomethyl)pyridyl-2-oxy]-cis-2-butenyl}-2-(furfurylsulfinyl)acetamide] | 38 | 251
O=C(C[S+]([O-])Cc1ccco1)NCCCCOc1cc(CN2CCCCC2)ccn1 (centres unmarked) [Example 21, N-{4-[4-(piperidinomethyl)-pyridyl-2-oxy]-butyl}-2-(furfurylsulfinyl)acetamide] | 32 | –
